Reference: ChEMBL document CHEMBL6127038, “How many organic small molecules might be used to treat COVID-19? From natural products to synthetic agents” (Eur J Med Chem, 2024)

Experiments:
[1] = biological target: T1, Replicase polyprotein 1ab (Severe acute respiratory syndrome coronavirus 2, UniProt P0DTD1); assay: Inhibition of SARS-CoV-2 RdRp
[2] = Inhibition of DENV-2 NS2B/NS3 protease; set-up: species or system dengue virus type 2
[3] = biological target: Replicase polyprotein 1ab (Human coronavirus 229E, UniProt P0C6X1); assay: Inhibition of HCov-229E 3CLpro by FRET assay
SARS-CoV-2 [4] = assay: Antiviral activity against SARS-CoV-2 infected in human HPAEpiC cells assessed as reduction in viral growth; type: functional, organism-based; details: Severe acute respiratory syndrome coronavirus 2, HPAEpiC
SARS-CoV-2 [5] = assay: Anti-viral activity against SARS-CoV-2 infected in human A549 cells expressing hACE2 by firefly reporter assay; type: functional, organism-based; details: Severe acute respiratory syndrome coronavirus 2, A549
Procathepsin L = Procathepsin L (Homo sapiens, UniProt P07711); assay: Inhibition of cathepsin L (unknown origin)
[6] = biological target: T1, Replicase polyprotein 1ab; assay: Inhibition of SARS-CoV-2 3CLPro
SARS-CoV-2 [7] = assay: Antiviral activity against wild type SARS-CoV-2 Omicron BA.1 infected in HEK293T cells assessed as reduction in viral replication measured after 48 hrs by Nano-Glo luciferase assay; type: functional, organism-based; details: Severe acute respiratory syndrome coronavirus 2, Omicron BA.1, HEK-293T
SARS-CoV-2 [8] = assay: Antiviral activity against wild type SARS-CoV-2 Omicron BA.5 infected in HEK293T cells assessed as reduction in viral replication measured after 48 hrs by Nano-Glo luciferase assay; type: functional, organism-based; details: Severe acute respiratory syndrome coronavirus 2, HEK-293T
SARS-CoV-2 [9] = assay: Antiviral activity against SARS-CoV-2 infected in human Calu-3 cells assessed as reduction in viral growth measured after 48 hrs by qRT-PCR analysis; type: functional, organism-based; details: Severe acute respiratory syndrome coronavirus 2, Calu-3, 48 h

Sequence of Replicase polyprotein 1ab (Human coronavirus 229E, UniProt P0C6X1) (P0C6X1 2966-3267 limits assumed): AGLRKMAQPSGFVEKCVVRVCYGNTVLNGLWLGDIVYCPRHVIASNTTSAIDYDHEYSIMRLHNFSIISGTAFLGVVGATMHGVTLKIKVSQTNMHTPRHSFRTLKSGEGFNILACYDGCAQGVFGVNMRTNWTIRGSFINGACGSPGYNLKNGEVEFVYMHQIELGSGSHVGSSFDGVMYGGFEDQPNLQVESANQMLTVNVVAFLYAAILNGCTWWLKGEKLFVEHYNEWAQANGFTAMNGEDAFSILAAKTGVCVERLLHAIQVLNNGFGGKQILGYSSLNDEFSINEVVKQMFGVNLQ
Sequence of Procathepsin L (P07711 whole entry): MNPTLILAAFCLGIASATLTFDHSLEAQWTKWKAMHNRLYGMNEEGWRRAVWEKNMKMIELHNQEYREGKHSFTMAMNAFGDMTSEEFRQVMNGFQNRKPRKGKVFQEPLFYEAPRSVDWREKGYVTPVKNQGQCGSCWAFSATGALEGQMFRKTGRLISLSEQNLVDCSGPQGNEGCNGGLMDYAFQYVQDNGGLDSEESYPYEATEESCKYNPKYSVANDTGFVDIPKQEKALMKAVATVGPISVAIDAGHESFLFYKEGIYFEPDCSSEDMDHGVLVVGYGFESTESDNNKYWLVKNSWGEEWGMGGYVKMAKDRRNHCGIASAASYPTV

CCCCC/C=C\C/C=C\CCCCCCCCOC(=O)[C@H](C)NP(=O)(OC[C@H]1O[C@@](C#N)(c2ccc3c(N)ncnn23)[C@H](O)[C@@H]1O)Oc1ccccc1 (stereo partly specified)
EC50 [1]: 440 nM

C=C1NC(=O)[C@]2(C)CSC(=N2)c2csc(n2)[C@]2(C)CSC(=N2)[C@@H]([C@@H](C)CC)NC(=O)[C@@H](C)NC(=O)/C(=C\C(C)C)COC(=O)c2csc(n2)[C@H](C(C)C)N(C)C(=O)[C@H](COC)NC1=O
IC50 [2]: 560 nM
IC50 [3]: 2390 nM

C=C1C(=O)[C@@]23C(=O)[C@@H](O)[C@@H]4C(C)(C)C[C@@H]5C(=O)OCC54[C@@H]2CC[C@@H]1[C@H]3OC(=O)C1Cc2ccccc2C1 (stereo partly specified)
EC50 (SARS-CoV-2 [4]): 19 nM

CCOC(=O)/C=C/[C@H](C[C@@H]1CCNC1=O)NC(=O)[C@H](Cc1ccccc1)NC(=O)[C@@H](N)Cc1ccccc1
IC50 (SARS-CoV-2 [5]): 8.2 nM
IC50 (Procathepsin L): 60 nM

CO[C@@H]1C[C@H](O[C@H]2C[C@](C)(CO)[C@@H]3CC[C@@]4(C)[C@@H]5CC[C@@H]6[C@H](CC(=O)[C@]7(C)C8=COC(N[C@H](C)C(C)C)=N[C@]8(C)[C@@H](O)[C@@H]8O[C@@]687)[C@@]5(C)CC[C@@H]4[C@@]3(C)[C@@H]2O)O[C@H](C)[C@H]1O
IC50 [6]: 74 nM
IC50 [3]: 6.6 nM

CCCCCCCCCC[C@@H]1CCC[C@]2(C=C(CO)[C@H]3CC(=O)C(C)=C[C@H]3O2)O1
EC50 (SARS-CoV-2 [7]): 100 nM
EC50 (SARS-CoV-2 [8]): 160 nM

CCC(CC)COC(=O)[C@H](C)N[P@](=O)(OC[C@H]1O[C@@](c2noc(C(F)(F)F)n2)(c2ccc3c(N)ncnn23)[C@@H]2OC(C)(C)O[C@@H]21)Oc1ccccc1
IC50 (SARS-CoV-2 [9]): 19300 nM
